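In this assay, cells in 96-well plates receive the compound at five concentrations for 48 hours. Endpoints are linearly interpolated between the surrounding concentrations. At the GI50, growth is halved. TGI marks complete inhibition of growth.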
How the values were obtained:
Assay in all cases: DTP human tumour cell line panel, 48 h
SF-268 CNS = system: SF-268 CNS
PC-3 prostate = system: PC-3 prostate
HS 578T breast = system: HS 578T breast
RPMI-8226 leukemia = system: RPMI-8226 leukemia
SR leukemia = system: SR leukemia
HOP-92 NSCLC = system: HOP-92 NSCLC
COLO 205 colon = system: COLO 205 colon
MCF7 breast = system: MCF7 breast
U251 CNS = system: U251 CNS
TK-10 renal = system: TK-10 renal
LOX IMVI melanoma = system: LOX IMVI melanoma
SK-MEL-28 melanoma = system: SK-MEL-28 melanoma
OVCAR-3 ovarian = system: OVCAR-3 ovarian
KM12 colon = system: KM12 colon
HOP-62 NSCLC = system: HOP-62 NSCLC
ACHN renal = system: ACHN renal
UO-31 renal = system: UO-31 renal
NCI-H522 lung = system: NCI-H522 lung
NCI/ADR-RES ovarian = system: NCI/ADR-RES ovarian
NCI-H23 lung = system: NCI-H23 lung
CAKI-1 renal = system: CAKI-1 renal
MDA-MB-468 breast = system: MDA-MB-468 breast
SF-539 CNS = system: SF-539 CNS
M14 melanoma = system: M14 melanoma
HCT-15 colon = system: HCT-15 colon
A549 NSCLC = system: A549 NSCLC
UACC-62 melanoma = system: UACC-62 melanoma
CCRF-CEM leukemia = system: CCRF-CEM leukemia
EKVX NSCLC = system: EKVX NSCLC
NCI-H226 lung = system: NCI-H226 lung
RXF 393 renal = system: RXF 393 renal
DU-145 prostate = system: DU-145 prostate
MDA-MB-231 breast = system: MDA-MB-231 breast
SNB-75 CNS = system: SNB-75 CNS
MOLT-4 leukemia = system: MOLT-4 leukemia
HL-60(TB) leukemia = system: HL-60(TB) leukemia
OVCAR-5 ovarian = system: OVCAR-5 ovarian
UACC-257 melanoma = system: UACC-257 melanoma
OVCAR-8 ovarian = system: OVCAR-8 ovarian
SK-MEL-2 melanoma = system: SK-MEL-2 melanoma
NCI-H460 lung = system: NCI-H460 lung
IGROV1 ovarian = system: IGROV1 ovarian
MALME-3M melanoma = system: MALME-3M melanoma
BT-549 breast = system: BT-549 breast
HCC-2998 colon = system: HCC-2998 colon
T-47D breast = system: T-47D breast
K-562 leukemia = system: K-562 leukemia
SK-OV-3 ovarian = system: SK-OV-3 ovarian
OVCAR-4 ovarian = system: OVCAR-4 ovarian
SW-620 colon = system: SW-620 colon
SN12C renal = system: SN12C renal
786-0 renal = system: 786-0 renal
HCT-116 colon = system: HCT-116 colon
MDA-MB-435 = system: MDA-MB-435
SF-295 CNS = system: SF-295 CNS
SNB-19 CNS = system: SNB-19 CNS
A498 renal = system: A498 renal
SK-MEL-5 melanoma = system: SK-MEL-5 melanoma
HT29 colon = system: HT29 colon

Compound: CN1CCN(c2ccc(C(=O)/C=C/c3ccc(OC(F)F)cc3)cc2)CC1
- GI50 (SF-268 CNS): 18 µM
- TGI (SF-268 CNS): 41.3 µM
- GI50 (PC-3 prostate): 10.3 µM
- TGI (PC-3 prostate): 26.5 µM
- GI50 (HS 578T breast): 14.9 µM
- TGI (HS 578T breast): 46.2 µM
- GI50 (RPMI-8226 leukemia): 2.6 µM
- TGI (RPMI-8226 leukemia): 9.85 µM
- GI50 (SR leukemia): 1.96 µM
- TGI (SR leukemia): > 100 µM
- GI50 (HOP-92 NSCLC): 6.21 µM
- TGI (HOP-92 NSCLC): 20.9 µM
- GI50 (COLO 205 colon): 14.2 µM
- TGI (COLO 205 colon): 30.9 µM
- GI50 (MCF7 breast): 2.74 µM
- TGI (MCF7 breast): 11 µM
- GI50 (U251 CNS): 9.79 µM
- TGI (U251 CNS): 27.5 µM
- GI50 (TK-10 renal): 14.8 µM
- TGI (TK-10 renal): 29.6 µM
- GI50 (LOX IMVI melanoma): 3.53 µM
- TGI (LOX IMVI melanoma): 13 µM
- GI50 (SK-MEL-28 melanoma): 15.3 µM
- TGI (SK-MEL-28 melanoma): 28.6 µM
- GI50 (OVCAR-3 ovarian): 12.1 µM
- TGI (OVCAR-3 ovarian): 25.5 µM
- GI50 (KM12 colon): 5.2 µM
- TGI (KM12 colon): 22.1 µM
- GI50 (HOP-62 NSCLC): 15.4 µM
- TGI (HOP-62 NSCLC): 30.4 µM
- GI50 (ACHN renal): 14.8 µM
- TGI (ACHN renal): 27.9 µM
- GI50 (UO-31 renal): 11 µM
- TGI (UO-31 renal): 23 µM
- GI50 (NCI-H522 lung): 15.4 µM
- TGI (NCI-H522 lung): 32.3 µM
- GI50 (NCI/ADR-RES ovarian): 13.9 µM
- TGI (NCI/ADR-RES ovarian): 27.3 µM
- GI50 (NCI-H23 lung): 11.8 µM
- TGI (NCI-H23 lung): 24.3 µM
- GI50 (CAKI-1 renal): 13.9 µM
- TGI (CAKI-1 renal): 27.2 µM
- GI50 (MDA-MB-468 breast): 3.52 µM
- TGI (MDA-MB-468 breast): 14.5 µM
- GI50 (SF-539 CNS): 12.3 µM
- TGI (SF-539 CNS): 24.7 µM
- GI50 (M14 melanoma): 12.3 µM
- TGI (M14 melanoma): 38.6 µM
- GI50 (HCT-15 colon): 6.88 µM
- TGI (HCT-15 colon): 19.7 µM
- GI50 (A549 NSCLC): 11.7 µM
- TGI (A549 NSCLC): 25.8 µM
- GI50 (UACC-62 melanoma): 14 µM
- TGI (UACC-62 melanoma): 27 µM
- GI50 (CCRF-CEM leukemia): 4.3 µM
- TGI (CCRF-CEM leukemia): 37.7 µM
- GI50 (EKVX NSCLC): 13.1 µM
- TGI (EKVX NSCLC): 25.8 µM
- GI50 (NCI-H226 lung): 10.8 µM
- TGI (NCI-H226 lung): 24.3 µM
- GI50 (RXF 393 renal): 4.34 µM
- TGI (RXF 393 renal): 17.4 µM
- GI50 (DU-145 prostate): 13.6 µM
- TGI (DU-145 prostate): 26.7 µM
- GI50 (MDA-MB-231 breast): 13.5 µM
- TGI (MDA-MB-231 breast): 26.3 µM
- GI50 (SNB-75 CNS): 4.85 µM
- TGI (SNB-75 CNS): 20.3 µM
- GI50 (MOLT-4 leukemia): 11.6 µM
- TGI (MOLT-4 leukemia): 54.9 µM
- GI50 (HL-60(TB) leukemia): 4.7 µM
- TGI (HL-60(TB) leukemia): 33.4 µM
- GI50 (OVCAR-5 ovarian): 14.8 µM
- TGI (OVCAR-5 ovarian): 28.1 µM
- GI50 (UACC-257 melanoma): 13.8 µM
- TGI (UACC-257 melanoma): 27.2 µM
- GI50 (OVCAR-8 ovarian): 14.2 µM
- TGI (OVCAR-8 ovarian): 27.8 µM
- GI50 (SK-MEL-2 melanoma): 16.6 µM
- TGI (SK-MEL-2 melanoma): 31.9 µM
- GI50 (NCI-H460 lung): 14.4 µM
- TGI (NCI-H460 lung): 30.1 µM
- GI50 (IGROV1 ovarian): 12.1 µM
- TGI (IGROV1 ovarian): 25.2 µM
- GI50 (MALME-3M melanoma): 13.1 µM
- TGI (MALME-3M melanoma): 25.8 µM
- GI50 (BT-549 breast): 13 µM
- TGI (BT-549 breast): 29 µM
- GI50 (HCC-2998 colon): 3.76 µM
- TGI (HCC-2998 colon): 14 µM
- GI50 (T-47D breast): 15.5 µM
- TGI (T-47D breast): 38.4 µM
- GI50 (K-562 leukemia): 2.8 µM
- TGI (K-562 leukemia): > 100 µM
- GI50 (SK-OV-3 ovarian): 13.9 µM
- TGI (SK-OV-3 ovarian): 27.6 µM
- GI50 (OVCAR-4 ovarian): 14.4 µM
- TGI (OVCAR-4 ovarian): 33.8 µM
- GI50 (SW-620 colon): 4.98 µM
- TGI (SW-620 colon): 18.5 µM
- GI50 (SN12C renal): 13.5 µM
- TGI (SN12C renal): 26.3 µM
- GI50 (786-0 renal): 15.3 µM
- TGI (786-0 renal): 39.6 µM
- GI50 (HCT-116 colon): 2.87 µM
- TGI (HCT-116 colon): > 100 µM
- GI50 (MDA-MB-435): 3 µM
- TGI (MDA-MB-435): 10.7 µM
- GI50 (SF-295 CNS): 12.3 µM
- TGI (SF-295 CNS): 24.7 µM
- GI50 (SNB-19 CNS): 14.7 µM
- TGI (SNB-19 CNS): 27.9 µM
- GI50 (A498 renal): 14.2 µM
- TGI (A498 renal): 27.8 µM
- GI50 (SK-MEL-5 melanoma): 8.94 µM
- TGI (SK-MEL-5 melanoma): 21.1 µM
- GI50 (HT29 colon): 3.41 µM
- TGI (HT29 colon): 15.3 µM

Reference: PubChem BioAssay (NCI)
